# Data from patent US20080051387A1, “TETRAHYDROPYRIDO[3,4-D]PYRIMIDINES AND RELATED ANALOGUES” (priority 2006, published 2008).
# Biological target: T1, chimeric human H3 receptor (Homo sapiens, UniProt Q9Y5N1)
# T1 construct: rat Galpha-i2 (Gnai2, rat); made in house; host or cells: Sf9 insect cells (baculovirus); P2 membranes
# Assay: Chimeric human H3 receptor screening GTP binding assay (inhibition of histamine-stimulated GTP-gamma35S binding, Example 8)
# Type: biochemical
# Settings: 1 h; assay described in Example 8; symbol "!" in column headed Ki; read-out: Ki ("!": percent inhibition of agonist-induced GTP-gammaS binding to H3)
# Method in brief: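 Compound tested at 4 μM against 1 μM histamine stimulation; 125 pM GTP-gamma35S binding measured by filtration and scintillation after 60 min at room temperature. Membranes from Sf9 cells expressing chimeric human H3 plus G-protein subunits, in Tris pH 7.4/NaCl/MgCl2/GDP buffer; values are % inhibition after nonspecific subtraction.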
# T1 sequence (Q9Y5N1 with tags, fused parts or gaps): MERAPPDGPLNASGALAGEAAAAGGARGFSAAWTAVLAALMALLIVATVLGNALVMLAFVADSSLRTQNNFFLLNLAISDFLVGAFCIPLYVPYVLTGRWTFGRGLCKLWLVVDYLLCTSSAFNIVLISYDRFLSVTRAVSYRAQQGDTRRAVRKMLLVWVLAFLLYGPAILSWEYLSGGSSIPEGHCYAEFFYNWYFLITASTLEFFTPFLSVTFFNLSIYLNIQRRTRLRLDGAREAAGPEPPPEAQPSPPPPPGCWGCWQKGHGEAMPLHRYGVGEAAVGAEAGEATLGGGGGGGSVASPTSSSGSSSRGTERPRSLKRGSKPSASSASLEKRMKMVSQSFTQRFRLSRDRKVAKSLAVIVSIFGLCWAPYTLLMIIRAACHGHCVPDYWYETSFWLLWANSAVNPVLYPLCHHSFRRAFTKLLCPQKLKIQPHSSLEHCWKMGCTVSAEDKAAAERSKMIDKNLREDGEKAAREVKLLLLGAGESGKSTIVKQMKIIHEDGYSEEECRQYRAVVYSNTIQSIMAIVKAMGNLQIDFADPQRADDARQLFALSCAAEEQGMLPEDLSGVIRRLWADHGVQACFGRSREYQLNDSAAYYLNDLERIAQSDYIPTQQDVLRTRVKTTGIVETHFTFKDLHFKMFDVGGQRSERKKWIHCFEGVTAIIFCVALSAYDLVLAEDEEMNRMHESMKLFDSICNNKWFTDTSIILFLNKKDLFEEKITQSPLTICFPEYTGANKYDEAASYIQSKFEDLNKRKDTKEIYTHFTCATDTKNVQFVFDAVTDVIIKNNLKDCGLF
row,inhibition at 4 µM,Compound
1,≥ 90%,"COc1cccc(OC)c1C(=O)N1CCc2cnc(N3CCN(C4CCC4)CC3)nc2CC1 [Compound 424, 2-(4-cyclobutylpiperazin-1-yl)-7-(2,6-dimethoxybenzoyl)-6,7,8,9-tetrahydro-5H-pyrimido[4,5-d]azepine]"
2,≥ 90%,"COc1ccc(C(=O)N2CCc3cnc(N4CCN(C5CCC5)CC4)nc3CC2)c(Cl)c1OC [Compound 425, 7-(2-chloro-3,4-dimethoxybenzoyl)-2-(4-cyclobutylpiperazin-1-yl)-6,7,8,9-tetrahydro-5H-pyrimido[4,5-d]azepine]"
3,≥ 90%,"COc1ccc(Cl)c(OC)c1C(=O)N1CCc2cnc(N3CCN(C4CCC4)CC3)nc2CC1 [Compound 426, 7-(3-chloro-2,6-dimethoxybenzoyl)-2-(4-cyclobutylpiperazin-1-yl)-6,7,8,9-tetrahydro-5H-pyrimido[4,5-d]azepine]"
4,≥ 90%,"COc1c(Cl)cc(Cl)c(OC)c1C(=O)N1CCc2cnc(N3CCN(C4CCC4)CC3)nc2CC1 [Compound 427, 2-(4-cyclobutylpiperazin-1-yl)-7-(3,5-dichloro-2,6-dimethoxybenzoyl)-6,7,8,9-tetrahydro-5H-pyrimido[4,5-d]azepine]"
5,≥ 90%,"COc1cc(Cl)c(C(=O)N2CCc3cnc(N4CCN(C5CCC5)CC4)nc3CC2)cc1OC [Compound 428, 7-(2-chloro-4,5-dimethoxybenzoyl)-2-(4-cyclobutylpiperazin-1-yl)-6,7,8,9-tetrahydro-5H-pyrimido[4,5-d]azepine]"
6,≥ 90%,"COc1cc(Br)c(C(=O)N2CCc3cnc(N4CCN(C5CCC5)CC4)nc3CC2)cc1OC [Compound 429, 7-(2-bromo-4,5-dimethoxybenzoyl)-2-(4-cyclobutylpiperazin-1-yl)-6,7,8,9-tetrahydro-5H-pyrimido[4,5-d]azepine]"
7,≥ 90%,"COc1cccc(C(=O)N2CCc3cnc(N4CCN(C5CCC5)CC4)nc3CC2)c1OC [Compound 430, 2-(4-cyclobutylpiperazin-1-yl)-7-(2,3-dimethoxybenzoyl)-6,7,8,9-tetrahydro-5H-pyrimido[4,5-d]azepine]"
8,≥ 90%,"COc1ccc(C(=O)N2CCc3cnc(N4CCN(C5CCC5)CC4)nc3CC2)c(OC)c1 [Compound 431, 2-(4-cyclobutylpiperazin-1-yl)-7-(2,4-dimethoxybenzoyl)-6,7,8,9-tetrahydro-5H-pyrimido[4,5-d]azepine]"
9,≥ 90%,"COc1ccc(C(=O)N2CCc3cnc(N4CCN(C5CCC5)CC4)nc3CC2)c(OC)c1OC [Compound 432, 2-(4-cyclobutylpiperazin-1-yl)-7-(2,3,4-trimethoxybenzoyl)-6,7,8,9-tetrahydro-5H-pyrimido[4,5-d]azepine]"
10,≥ 90%,"O=C(c1c(F)cccc1Cl)N1CCc2cnc(N3CCN(C4CCC4)CC3)nc2CC1 [Compound 433, 7-(2-chloro-6-fluorobenzoyl)-2-(4-cyclobutylpiperazin-1-yl)-6,7,8,9-tetrahydro-5H-pyrimido[4,5-d]azepine]"
11,≥ 90%,"O=C(c1c(F)cccc1C(F)(F)F)N1CCc2cnc(N3CCN(C4CCC4)CC3)nc2CC1 [Compound 434, 2-(4-cyclobutylpiperazin-1-yl)-7-[2-fluoro-6-(trifluoromethyl)benzoyl]-6,7,8,9-tetrahydro-5H-pyrimido[4,5-d]azepine]"
12,≥ 90%,"O=C(c1c(Cl)cccc1Cl)N1CCc2cnc(N3CCN(C4CCC4)CC3)nc2CC1 [Compound 435, 2-(4-cyclobutylpiperazin-1-yl)-7-(2,6-dichlorobenzoyl)-6,7,8,9-tetrahydro-5H-pyrimido[4,5-d]azepine]"
13,≥ 90%,"O=C(c1ccccc1Cl)N1CCc2cnc(N3CCN(C4CCC4)CC3)nc2CC1 [Compound 436, 7-(2-chlorobenzoyl)-2-(4-cyclobutylpiperazin-1-yl)-6,7,8,9-tetrahydro-5H-pyrimido[4,5-d]azepine]"
14,≥ 90%,"O=C(c1cccc(C(F)(F)F)c1Cl)N1CCc2cnc(N3CCN(C4CCC4)CC3)nc2CC1 [Compound 437, 7-[2-chloro-3-(trifluoromethyl)benzoyl]-2-(4-cyclobutylpiperazin-1-yl)-6,7,8,9-tetrahydro-5H-pyrimido[4,5-d]azepine]"
15,≥ 90%,"O=C(c1cc(C(F)(F)F)ccc1Cl)N1CCc2cnc(N3CCN(C4CCC4)CC3)nc2CC1 [Compound 438, 7-[2-chloro-5-(trifluoromethyl)benzoyl]-2-(4-cyclobutylpiperazin-1-yl)-6,7,8,9-tetrahydro-5H-pyrimido[4,5-d]azepine]"
16,≥ 90%,"O=C(c1ccccc1C(F)(F)F)N1CCc2cnc(N3CCN(C4CCC4)CC3)nc2CC1 [Compound 439, 2-(4-cyclobutylpiperazin-1-yl)-7-[2-(trifluoromethyl)benzoyl]-6,7,8,9-tetrahydro-5H-pyrimido[4,5-d]azepine]"
17,≥ 90%,"O=C(c1cccc(Cl)c1Cl)N1CCc2cnc(N3CCN(C4CCC4)CC3)nc2CC1 [Compound 440, 2-(4-cyclobutylpiperazin-1-yl)-7-(2,3-dichlorobenzoyl)-6,7,8,9-tetrahydro-5H-pyrimido[4,5-d]azepine]"

row,inhibition at 4 µM,Compound
1,≥ 90%,"O=C(c1cc(Cl)ccc1Cl)N1CCc2cnc(N3CCN(C4CCC4)CC3)nc2CC1 [Compound 441, 2-(4-cyclobutylpiperazin-1-yl)-7-(2,5-dichlorobenzoyl)-6,7,8,9-tetrahydro-5H-pyrimido[4,5-d]azepine]"
2,≥ 90%,"O=C(c1ccc(Cl)cc1Cl)N1CCc2cnc(N3CCN(C4CCC4)CC3)nc2CC1 [Compound 442, 2-(4-cyclobutylpiperazin-1-yl)-7-(2,4-dichlorobenzoyl)-6,7,8,9-tetrahydro-5H-pyrimido[4,5-d]azepine]"
3,≥ 90%,"O=C(c1cccs1)N1CCc2cnc(N3CCN(C4CCC4)CC3)nc2CC1 [Compound 443, 2-(4-cyclobutylpiperazin-1-yl)-7-(2-thienylcarbonyl)-6,7,8,9-tetrahydro-5H-pyrimido[4,5-d]azepine]"
4,≥ 90%,"Cc1ccsc1C(=O)N1CCc2cnc(N3CCN(C4CCC4)CC3)nc2CC1 [Compound 444, 2-(4-cyclobutylpiperazin-1-yl)-7-[(3-methyl-2-thienyl)carbonyl]-6,7,8,9-tetrahydro-5H-pyrimido[4,5-d]azepine]"
5,≥ 90%,"Cc1ccc(C(=O)N2CCc3cnc(N4CCN(C5CCC5)CC4)nc3CC2)s1 [Compound 445, 2-(4-cyclobutylpiperazin-1-yl)-7-[(5-methyl-2-thienyl)carbonyl]-6,7,8,9-tetrahydro-5H-pyrimido[4,5-d]azepine]"
6,≥ 90%,"O=C(c1sccc1Cl)N1CCc2cnc(N3CCN(C4CCC4)CC3)nc2CC1 [Compound 446, 7-[(3-chloro-2-thienyl)carbonyl]-2-(4-cyclobutylpiperazin-1-yl)-6,7,8,9-tetrahydro-5H-pyrimido[4,5-d]azepine]"
7,≥ 90%,"CCOc1ccsc1C(=O)N1CCc2cnc(N3CCN(C4CCC4)CC3)nc2CC1 [Compound 447, 2-(4-cyclobutylpiperazin-1-yl)-7-[(3-ethoxy-2-thienyl)carbonyl]-6,7,8,9-tetrahydro-5H-pyrimido[4,5-d]azepine]"
8,≥ 90%,"CSc1ccc(C(=O)N2CCc3cnc(N4CCN(C5CCC5)CC4)nc3CC2)s1 [Compound 448, 2-(4-cyclobutylpiperazin-1-yl)-7-{[5-(methylthio)-2-thienyl]carbonyl}-6,7,8,9-tetrahydro-5H-pyrimido[4,5-d]azepine]"
9,≥ 90%,"O=C(c1ccc(Br)s1)N1CCc2cnc(N3CCN(C4CCC4)CC3)nc2CC1 [Compound 449, 7-[(5-bromo-2-thienyl)carbonyl]-2-(4-cyclobutylpiperazin-1-yl)-6,7,8,9-tetrahydro-5H-pyrimido[4,5-d]azepine]"
10,≥ 90%,"O=C(c1sccc1Br)N1CCc2cnc(N3CCN(C4CCC4)CC3)nc2CC1 [Compound 450, 7-[(3-bromo-2-thienyl)carbonyl]-2-(4-cyclobutylpiperazin-1-yl)-6,7,8,9-tetrahydro-5H-pyrimido[4,5-d]azepine]"
11,≥ 90%,"CCc1ccc(C(=O)N2CCc3cnc(N4CCN(C5CCC5)CC4)nc3CC2)s1 [Compound 451, 2-(4-cyclobutylpiperazin-1-yl)-7-[(5-ethyl-2-thienyl)carbonyl]-6,7,8,9-tetrahydro-5H-pyrimido[4,5-d]azepine]"
12,≥ 90%,"CCCc1ccc(C(=O)N2CCc3cnc(N4CCN(C5CCC5)CC4)nc3CC2)s1 [Compound 452, 2-(4-cyclobutylpiperazin-1-yl)-7-[(5-propyl-2-thienyl)carbonyl]-6,7,8,9-tetrahydro-5H-pyrimido[4,5-d]azepine]"
13,≥ 90%,"O=C(c1ccc(Cl)s1)N1CCc2cnc(N3CCN(C4CCC4)CC3)nc2CC1 [Compound 453, 7-[(5-chloro-2-thienyl)carbonyl]-2-(4-cyclobutylpiperazin-1-yl)-6,7,8,9-tetrahydro-5H-pyrimido[4,5-d]azepine]"
14,≥ 90%,"CCCCn1c(C(=O)N2CCc3cnc(N4CCN(C5CCC5)CC4)nc3CC2)cc2ccccc21 [Compound 454, 7-[(1-butyl-1H-indol-2-yl)carbonyl]-2-(4-cyclobutylpiperazin-1-yl)-6,7,8,9-tetrahydro-5H-pyrimido[4,5-d]azepine]"
15,≥ 90%,"O=C(c1cc2ccccc2s1)N1CCc2cnc(N3CCN(C4CCC4)CC3)nc2CC1 [Compound 455, 7-(1-benzothien-2-ylcarbonyl)-2-(4-cyclobutylpiperazin-1-yl)-6,7,8,9-tetrahydro-5H-pyrimido[4,5-d]azepine]"
16,≥ 90%,"COc1cscc1C(=O)N1CCc2cnc(N3CCN(C4CCC4)CC3)nc2CC1 [Compound 456, 2-(4-cyclobutylpiperazin-1-yl)-7-[(4-methoxy-3-thienyl)carbonyl]-6,7,8,9-tetrahydro-5H-pyrimido[4,5-d]azepine]"
